Experimental data taken from US10278942B2 (PELOTON THERAPEUTICS, INC., priority 2015, dated 2019).
One block for each compound: values may come before it.

Assays:
[1] = test system: rats with hypoxia/semaxanib induced pulmonary arterial hypertension; assay: Prevention of PAH by a HIF-2α inhibitor (Example 36)
Method: Two rats not exposed to either semaxanib or hypoxia served as hypertrophic sentinels for this study. Rats received a single injection of semaxanib (200 mg/kg, s.c.) on the same day as initiation of test article dosing and introduction to the hypoxic chamber. Rats were kept in hypoxic conditions for the duration of this study. On the twenty-eighth day of test article dosing, the rats were anesthetized with ketamine/xylazine for terminal monitoring of pulmonary and systemic arterial pressures along with heart rate. […]

[2] = test system: rats with hypoxia/semaxanib induced pulmonary arterial hypertension; assay: Effect of HIF-2α inhibition in a model of active PAH (Example 37, interventional)
Excerpt: Rats were kept in hypoxic conditions for the duration of this study. On the fourteenth day of test article dosing, the rats were anesthetized with ketamine/xylazine for terminal monitoring of pulmonary and systemic arterial pressures along with heart rate. […]

[3] = biological target: T1, HIF-2α HIS TAG-PASB Domain (Homo sapiens, UniProt Q99814); assay: HIF-2α Scintillation Proximity Assay (SPA); format: binding; details: read-out: Scintillation Proximity Assay IC50
T1 construct: 100 nM HIF-2α HIS TAG-PASB Domain
Method in brief: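 IC50 values rest on percent inhibition, where the sample signal is scaled between high and low controls. Wells contain about 100 μL: compound dispensed as 2 μL of DMSO solution, 88 μL protein-probe mix and 10 μL of beads.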

786-O-Hif-Luc cells = assay: Luciferase Assay (HIF responsive elements reporter); details: read-out: Mean Luciferase EC50 (nM), 786-O-Hif-Luc cells
Method: A pool of infected cells were then selected against 2 μg/mL of puromycin (P8833, Sigma) for 10 days followed by limited dilution to select single clones. […] Each concentration was tested in triplicate. After about 24 hours, luciferase activity was determined using ONE-Glo Luciferase Assay Reagent (E6110, Promega) following the manufacturer's recommended procedure. EC50 were calculated using Dotmatics software.

786-O cells = assay: VEGF ELISA Assay; format: cell-based; details: Homo sapiens, 786-0
Method: Each concentration was plated in duplicate. About 20 hours later, medium was removed by suction and each well was supplied with 180 μL of growth medium. About 20 μl freshly-made 10× compound stocks were added to each well. […] The EC50 was calculated by GraphPad Prism using the dose-response-inhibition (four parameter) equation. The cell-seeded plate was then subjected to CellTiter-Glo luminescence cell viability assay (Promega) by adding 50 μL of Celltiter Glo reagent into each well and shaking the plate for 8 minutes at 550 rpm (Thermomixer R, Eppendorf) then the luminescence signal immediately read in a plate reader (3 second delay, 0.5 second/well integration time, Synergy 2 multi Detection Microplate reader).

[4] = prevention, 60/day bid oral 28 days, Mean ± SEM
[5] = prevention, Group 4, 30 mg/kg BID
[6] = active PAH, 60/day bid oral Days 15 to 28, Mean ± SEM
[7] = active PAH, Group 4, 60 mg/kg/day 14 days

T1 sequence (Q99814 240-350 limits assumed): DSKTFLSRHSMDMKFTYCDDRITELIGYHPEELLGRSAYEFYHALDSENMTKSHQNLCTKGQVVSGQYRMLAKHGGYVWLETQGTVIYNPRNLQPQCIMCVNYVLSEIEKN

Compound: CCCc1nn(C)c2c(=O)[nH]c(-c3cc(S(=O)(=O)N4CCN(C)CC4)ccc3OCC)nc12 [sildenafil]
RV/LV + S ([1]; Fulton's Index, prevention, 60/day bid oral 28 days, Mean ± SEM): 0.52 ± 0.04 | Heart Wt [1, 4]: 1.23 ± 0.03 g | LV Wt [1, 4]: 0.71 ± 0.02 g | Lung Wt [1, 4]: 2.39 ± 0.07 g | MAP [1, 4]: 92 ± 2 mm Hg | Mean PAP [1, 4]: 38 ± 3 mm Hg | RV Wt [1, 4]: 0.36 ± 0.03 g | RV/BW [1, 4]: 1.12 ± 0.10 | Systolic PAP [1, 4]: 55 ± 5 mm Hg | mean percentages of completely muscularized arterioles [1, 5]: 58.7% | mean percentages of non-muscularized arterioles [1, 5]: 1.1% | mean percentages of partially muscularized arterioles [1, 5]: 40.2% | Group mean scores for smooth muscle hypertrophy ([1]; prevention, Group 4, 30 mg/kg BID, lung histopathology): 3.4 | pulmonary arteriolar smooth muscle hypertrophy compared to vehicle ([1]; prevention, histopathology evaluation and arteriole counts): slight decrease | protection versus vehicle (systolic pulmonary arterial pressure) ([1]; prevention, sildenafil group): showed protection versus vehicle | heart rate compared to vehicle ([1]; rat, in vivo): No notable differences | HR ([1]; rat, in vivo, po): 289 ± 11 bpm | Heart Wt [2, 6]: 1.25 g | LV Wt [2, 6]: 0.75 g | LW/BW [2, 6]: 6.68 | Lung Wt [2, 6]: 2.36 g | MAP [2, 6]: 93 mm Hg | Mean PAP [2, 6]: 36 mm Hg | RV Wt [2, 6]: 0.35 g | RV/BW [2, 6]: 0.98 | RV/LV + S [2, 6]: 0.46 | Systolic PAP [2, 6]: 56 mm Hg | Group mean scores for smooth muscle hypertrophy [2, 7]: 2.6 | mean percentages of completely muscularized arterioles [2, 7]: 47.2% | mean percentages of non-muscularized arterioles [2, 7]: 1.1% | mean percentages of partially muscularized arterioles [2, 7]: 51.7% | pulmonary hypertrophy ([2]; active PAH, compared to vehicle): reductions in pulmonary hypertrophy | reduction in RV/BW ratio ([2]; active PAH, sildenafil 30 mg/kg twice daily, p<0.05): 21% | heart rate compared to vehicle ([2]; rat, in vivo): No substantive differences | Body Weight ([2]; rat, in vivo, po): 0.35 kg | HR ([2]; rat, in vivo, po): 298 bpm

Compound: O=S(=O)(c1ccc(CCO)c2c1C(O)CC2)C(F)(F)F (stereo not drawn) [Compound 495, 4-(2-hydroxyethyl)-7-((trifluoromethyl)sulfonyl)-2,3-dihydro-1H-inden-1-ol]
IC50 [3]: > 1000 nM | EC50 (786-O-Hif-Luc cells): > 1000 nM | EC50 (786-O cells): 250 to 1000 nM

Compound: CS(=O)(=O)c1ccc(OC2CC(F)(F)C2)c2c1[C@H](O)[C@H](F)[C@@H]2F [Compound 577]
IC50 [3]: < 50 nM | EC50 (786-O-Hif-Luc cells): 250 to 1000 nM | EC50 (786-O cells): 250 to 1000 nM

Compound: N#CC1(COc2ccc(S(=O)(=O)C(F)(F)F)c3c2CC(F)(F)C3O)CC1 (stereo not drawn) [Compound 620]
IC50 [3]: 50 to 249 nM | EC50 (786-O-Hif-Luc cells): 50 to 249 nM | EC50 (786-O cells): 50 to 249 nM

Next, values leading:

IC50 [3]: < 50 nM | EC50 (786-O-Hif-Luc cells): < 50 nM | EC50 (786-O cells): < 50 nM
Compound: CS(=O)(=O)c1ccc(Oc2cc(F)cc(F)c2)c2c1[C@H](O)C(F)(F)C2 [Compound 159]

IC50 [3]: < 50 nM | EC50 (786-O-Hif-Luc cells): < 50 nM | EC50 (786-O cells): 50 to 249 nM
Compound: CS(=O)(=NC#N)c1ccc(Oc2cc(F)cc(C#N)c2)c2c1[C@H](O)C(F)(F)C2 (single isomer, unassigned) [Compound 240]

IC50 [3]: < 50 nM | EC50 (786-O-Hif-Luc cells): 50 to 249 nM | EC50 (786-O cells): 50 to 249 nM
Compound: CS(=O)(=NC#N)c1ccc(Oc2cc(F)cc(C#N)c2)c2c1[C@H](O)C(F)(F)C2 (stereo partly drawn) [Compound 245]

IC50 [3]: < 50 nM | EC50 (786-O-Hif-Luc cells): 50 to 249 nM | EC50 (786-O cells): 50 to 249 nM
Compound: O=S(=O)(c1ccc(Oc2cc(F)c[n+]([O-])c2)c2c1[C@H](O)C(F)(F)C2)C(F)(F)F [Compound 310]

IC50 [3]: 50 to 249 nM | EC50 (786-O-Hif-Luc cells): 250 to 1000 nM | EC50 (786-O cells): 50 to 249 nM
Compound: CS(=O)(=O)c1ccc(Oc2cncc(C#N)c2)c2c1[C@H](O)C(F)(F)C2 [Compound 325]
